# Test results published in ChEMBL document CHEMBL4706583, “2-Anilinoquinoline based arylamides as broad spectrum anticancer agents with B-RAF/C-RAF kinase inhibitory effects: Design, synthesis, in vitro cell-based and oncogenic kinase assessments” (Eur J Med Chem, 2020).
# Key:
# [1] = tested on: UACC-62; test: Growth inhibition of human UACC-62 cells measured after 48 hrs by SRB assay; type: functional
# [2] = tested on: A549; test: Growth inhibition of human A549 cells measured after 48 hrs by SRB assay; type: functional
# [3] = tested on: NCI-H460; test: Growth inhibition of human NCI-H460 cells measured after 48 hrs by SRB assay; type: functional
# [4] = tested on: MDA-MB-231; test: Growth inhibition of human MDA-MB-231 cells measured after 48 hrs by SRB assay; type: functional
# [5] = tested on: K562; test: Growth inhibition of human K562 cells measured after 48 hrs by SRB assay; type: functional
# [6] = tested on: TK-10; test: Growth inhibition of human TK-10 cells measured after 48 hrs by SRB assay; type: functional
# [7] = tested on: NCI/ADR-RES; test: Growth inhibition of human NCI/ADR-RES cells measured after 48 hrs by SRB assay; type: functional
# [8] = tested on: HCT-15; test: Growth inhibition of human HCT-15 cells measured after 48 hrs by SRB assay; type: functional
# [9] = tested on: SNB-75; test: Growth inhibition of human SNB-75 cells measured after 48 hrs by SRB assay; type: functional
# [10] = tested on: MOLT-4; test: Growth inhibition of human MOLT-4 cells measured after 48 hrs by SRB assay; type: functional
# [11] = tested on: EKVX; test: Growth inhibition of human EKVX cells measured after 48 hrs by SRB assay; type: functional
# [12] = tested on: UO-31; test: Growth inhibition of human UO-31 cells measured after 48 hrs by SRB assay; type: functional
# [13] = tested on: SR; test: Growth inhibition of human SR cells measured after 48 hrs by SRB assay; type: functional
# [14] = tested on: SF-295; test: Growth inhibition of human SF-295 cells measured after 48 hrs by SRB assay; type: functional
# [15] = tested on: SW-620; test: Growth inhibition of human SW-620 cells measured after 48 hrs by SRB assay; type: functional
# [16] = tested on: HCT-116; test: Growth inhibition of human HCT-116 cells measured after 48 hrs by SRB assay; type: functional
# [17] = tested on: OVCAR-5; test: Growth inhibition of human OVCAR-5 cells measured after 48 hrs by SRB assay; type: functional
# [18] = tested on: DU-145; test: Growth inhibition of human DU-145 cells measured after 48 hrs by SRB assay; type: functional
# [19] = tested on: SF-539; test: Growth inhibition of human SF-539 cells measured after 48 hrs by SRB assay; type: functional
# [20] = tested on: SN12C; test: Growth inhibition of human SN12C cells measured after 48 hrs by SRB assay; type: functional
# [21] = tested on: SK-MEL-28; test: Growth inhibition of human SK-MEL-28 cells measured after 48 hrs by SRB assay; type: functional
# [22] = tested on: OVCAR-3; test: Growth inhibition of human OVCAR-3 cells measured after 48 hrs by SRB assay; type: functional
# [23] = tested on: KM12; test: Growth inhibition of human KM12 cells measured after 48 hrs by SRB assay; type: functional
# [24] = tested on: HT-29; test: Growth inhibition of human HT-29 cells measured after 48 hrs by SRB assay; type: functional
# [25] = tested on: COLO 205; test: Growth inhibition of human COLO 205 cells measured after 48 hrs by SRB assay; type: functional
# [26] = tested on: A498; test: Growth inhibition of human A498 cells measured after 48 hrs by SRB assay; type: functional
# [27] = tested on: SK-MEL-5; test: Growth inhibition of human SK-MEL-5 cells measured after 48 hrs by SRB assay; type: functional
# [28] = tested on: 786-0; test: Growth inhibition of human 786-0 cells measured after 48 hrs by SRB assay; type: functional
# [29] = tested on: MDA-MB-435; test: Growth inhibition of human MDA-MB-435 cells measured after 48 hrs by SRB assay; type: functional
# [30] = tested on: NCI-H322M; test: Growth inhibition of human NCI-H322M cells measured after 48 hrs by SRB assay; type: functional
# [31] = tested on: CCRF-CEM; test: Growth inhibition of human CCRF-CEM cells measured after 48 hrs by SRB assay; type: functional
# [32] = tested on: ACHN; test: Growth inhibition of human ACHN cells measured after 48 hrs by SRB assay; type: functional
# [33] = tested on: IGROV-1; test: Growth inhibition of human IGROV-1 cells measured after 48 hrs by SRB assay; type: functional
# [34] = tested on: U-251; test: Growth inhibition of human U-251 cells measured after 48 hrs by SRB assay; type: functional
# [35] = tested on: HCC 2998; test: Growth inhibition of human HCC 2998 cells measured after 48 hrs by SRB assay; type: functional
# [36] = tested on: RXF 393; test: Growth inhibition of human RXF 393 cells measured after 48 hrs by SRB assay; type: functional
# [37] = tested on: HOP-92; test: Growth inhibition of human HOP-92 cells measured after 48 hrs by SRB assay; type: functional
# [38] = tested on: OVCAR-8; test: Growth inhibition of human OVCAR-8 cells measured after 48 hrs by SRB assay; type: functional
# [39] = tested on: T47D; test: Growth inhibition of human T47D cells measured after 48 hrs by SRB assay; type: functional
# [40] = tested on: HL-60(TB); test: Growth inhibition of human HL-60(TB) cells measured after 48 hrs by SRB assay; type: functional
# [41] = tested on: PC-3; test: Growth inhibition of human PC-3 cells measured after 48 hrs by SRB assay; type: functional
# [42] = tested on: SK-MEL-2; test: Growth inhibition of human SK-MEL-2 cells measured after 48 hrs by SRB assay; type: functional
# [43] = tested on: UACC-257; test: Growth inhibition of human UACC-257 cells measured after 48 hrs by SRB assay; type: functional
# [44] = tested on: SK-OV-3; test: Growth inhibition of human SK-OV-3 cells measured after 48 hrs by SRB assay; type: functional
# [45] = tested on: Malme-3M; test: Growth inhibition of human Malme-3M cells measured after 48 hrs by SRB assay; type: functional
# [46] = tested on: M14; test: Growth inhibition of human M14 cells measured after 48 hrs by SRB assay; type: functional
# [47] = tested on: RPMI-8226; test: Growth inhibition of human RPMI-8226 cells measured after 48 hrs by SRB assay; type: functional
# [48] = tested on: OVCAR-4; test: Growth inhibition of human OVCAR-4 cells measured after 48 hrs by SRB assay; type: functional
# [49] = tested on: CAKI-1; test: Growth inhibition of human CAKI-1 cells measured after 48 hrs by SRB assay; type: functional
# [50] = tested on: NCI-H226; test: Growth inhibition of human NCI-H226 cells measured after 48 hrs by SRB assay; type: functional
# [51] = tested on: SNB-19; test: Growth inhibition of human SNB-19 cells measured after 48 hrs by SRB assay; type: functional
# [52] = tested on: NCI-H23; test: Growth inhibition of human NCI-H23 cells measured after 48 hrs by SRB assay; type: functional
# [53] = tested on: HOP-62; test: Growth inhibition of human HOP-62 cells measured after 48 hrs by SRB assay; type: functional
# [54] = tested on: MCF7; test: Growth inhibition of human MCF7 cells measured after 48 hrs by SRB assay; type: functional
# [55] = tested on: Hs-578T; test: Growth inhibition of human Hs-578T cells measured after 48 hrs by SRB assay; type: functional
# [56] = tested on: BT-549; test: Growth inhibition of human BT-549 cells measured after 48 hrs by SRB assay; type: functional
# [57] = tested on: NCI-H522; test: Growth inhibition of human NCI-H522 cells measured after 48 hrs by SRB assay; type: functional
# [58] = tested on: LOX IMVI; test: Growth inhibition of human LOX IMVI cells measured after 48 hrs by SRB assay; type: functional
# [59] = biological target: Serine/threonine-protein kinase B-raf (Homo sapiens, UniProt P15056); test: Inhibition of human BRAF at 10 uM using MEK1 (K97R) as substrate in presence of [gamma-33P]ATP by scintillation counting method relative to control
# [60] = biological target: RAF proto-oncogene serine/threonine-protein kinase (Homo sapiens, UniProt P04049); test: Inhibition of human CRAF at 10 uM using MEK1 (K97R) as substrate in presence of [gamma-33P]ATP by scintillation counting method relative to control
# [61] = tested on: Serine/threonine-protein kinase B-raf (Homo sapiens), P15056 [V600E]; test: Inhibition of human BRAF V600E mutant at 10 uM using MEK1 (K97R) as substrate in presence of [gamma-33P]ATP by scintillation counting method relative to control
# Sequence of Serine/threonine-protein kinase B-raf (Homo sapiens), P15056 [V600E] (P15056 whole entry V600E): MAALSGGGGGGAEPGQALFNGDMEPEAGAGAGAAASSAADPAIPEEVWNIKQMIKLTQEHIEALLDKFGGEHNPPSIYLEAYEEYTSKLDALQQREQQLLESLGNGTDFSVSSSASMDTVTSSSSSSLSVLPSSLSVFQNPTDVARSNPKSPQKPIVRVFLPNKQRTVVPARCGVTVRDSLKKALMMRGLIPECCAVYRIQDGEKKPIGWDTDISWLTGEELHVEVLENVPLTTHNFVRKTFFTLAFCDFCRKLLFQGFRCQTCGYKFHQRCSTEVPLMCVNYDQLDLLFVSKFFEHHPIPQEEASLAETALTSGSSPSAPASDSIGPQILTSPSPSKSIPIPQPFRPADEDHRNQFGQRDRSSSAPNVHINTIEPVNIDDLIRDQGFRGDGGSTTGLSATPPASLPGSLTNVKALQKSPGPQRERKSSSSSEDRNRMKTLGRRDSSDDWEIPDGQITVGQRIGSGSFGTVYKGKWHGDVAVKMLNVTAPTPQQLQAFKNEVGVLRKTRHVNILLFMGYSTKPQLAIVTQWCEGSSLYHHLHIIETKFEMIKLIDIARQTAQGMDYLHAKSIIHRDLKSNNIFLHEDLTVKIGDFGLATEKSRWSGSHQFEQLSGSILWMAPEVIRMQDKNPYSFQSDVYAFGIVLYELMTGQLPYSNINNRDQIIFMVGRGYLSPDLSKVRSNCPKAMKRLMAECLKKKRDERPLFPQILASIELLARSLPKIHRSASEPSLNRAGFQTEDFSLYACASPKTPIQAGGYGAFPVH
# Sequence of RAF proto-oncogene serine/threonine-protein kinase (P04049 whole entry): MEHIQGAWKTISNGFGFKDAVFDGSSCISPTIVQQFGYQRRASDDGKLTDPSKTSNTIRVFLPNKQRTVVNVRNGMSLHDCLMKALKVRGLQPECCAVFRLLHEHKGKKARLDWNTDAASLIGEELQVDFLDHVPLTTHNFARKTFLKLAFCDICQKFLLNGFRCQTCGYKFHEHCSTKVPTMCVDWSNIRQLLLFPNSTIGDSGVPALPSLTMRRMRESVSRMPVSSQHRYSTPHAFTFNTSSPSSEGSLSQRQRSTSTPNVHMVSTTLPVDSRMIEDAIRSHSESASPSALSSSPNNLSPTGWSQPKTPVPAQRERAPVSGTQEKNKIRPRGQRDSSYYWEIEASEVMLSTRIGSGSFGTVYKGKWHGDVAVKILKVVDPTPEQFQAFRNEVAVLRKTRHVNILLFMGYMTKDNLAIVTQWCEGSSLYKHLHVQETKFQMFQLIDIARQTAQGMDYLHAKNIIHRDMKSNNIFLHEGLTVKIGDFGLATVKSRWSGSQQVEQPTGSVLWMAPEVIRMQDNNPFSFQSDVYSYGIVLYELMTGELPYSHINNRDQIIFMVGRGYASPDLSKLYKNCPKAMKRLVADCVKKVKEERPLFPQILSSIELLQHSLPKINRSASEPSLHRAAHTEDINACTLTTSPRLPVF
# Sequence of Serine/threonine-protein kinase B-raf (P15056 whole entry): as the sequence (P15056 whole entry V600E) above, with E600V counted along it
compound,measurement,setting,value
Cc1ccc(NC(=O)c2ccc(CN3CCN(C)CC3)cc2)cc1Nc1nccc(-c2cccnc2)n1 [IMATINIB],GI50,[1],19 µM
same,GI50,[2],24.5 µM
same,GI50,[3],16.2 µM
same,GI50,[4],18.7 µM
same,GI50,[5],20 nM
same,GI50,[6],26.9 µM
same,GI50,[7],23 µM
same,GI50,[8],19.9 µM
same,GI50,[9],20.3 µM
same,GI50,[10],5.13 µM
same,GI50,[11],26.2 µM
same,GI50,[12],22.3 µM
same,GI50,[13],7.14 µM
same,GI50,[14],19.8 µM
same,GI50,[15],23.4 µM
same,GI50,[16],12.6 µM
same,GI50,[17],580 nM
same,GI50,[18],18.8 µM
same,GI50,[19],10.6 µM
same,GI50,[20],33.2 µM
same,GI50,[21],14.6 µM
same,GI50,[22],34.2 µM
same,GI50,[23],18.8 µM
same,GI50,[24],3.97 µM
same,GI50,[25],17.6 µM
same,GI50,[26],22 µM
same,GI50,[27],12.1 µM
same,GI50,[28],16 µM
same,GI50,[29],17.9 µM
same,GI50,[30],22.8 µM
same,GI50,[31],17 µM
same,GI50,[32],25.2 µM
same,GI50,[33],21.2 µM
same,GI50,[34],18 µM
same,GI50,[35],21.2 µM
same,GI50,[36],15.1 µM
same,GI50,[37],13.3 µM
same,GI50,[38],27.7 µM
same,GI50,[39],19.9 µM
same,GI50,[40],13.5 µM
same,GI50,[41],21.4 µM
same,GI50,[42],25 µM
same,GI50,[43],21.1 µM
same,GI50,[44],28.9 µM
same,GI50,[45],16.3 µM
same,GI50,[46],19.3 µM
same,GI50,[47],6.05 µM
same,GI50,[48],20 µM
same,GI50,[49],34 µM
same,GI50,[50],18.1 µM
same,GI50,[51],38.6 µM
same,GI50,[52],15 µM
same,GI50,[53],21.5 µM
same,GI50,[54],18.2 µM
same,GI50,[55],14.6 µM
same,GI50,[56],16.1 µM
same,GI50,[57],16.4 µM
same,GI50,[58],18.1 µM
COc1cc2cc(Oc3ccc(NC(=O)c4cc(C(F)(F)F)cc(C(F)(F)F)c4)cc3)c(C)nc2cc1OC,inhibition,[59],< 47%
same,GI50,[14],1.64 µM
same,GI50,[16],1.56 µM
same,GI50,[26],1.13 µM
same,GI50,[27],2.76 µM
same,inhibition,[60],76.7%
same,GI50,[37],1.82 µM
same,GI50,[41],1.66 µM
same,GI50,[47],1.57 µM
same,inhibition,[61],< 47%
same,GI50,[48],4.53 µM
same,GI50,[56],3.02 µM
